Source: patent US9334271B2, “Purine derivatives and their use in the treatment of disease” (Novarits AG, priority 2012, dated 2016)
Where two headings read alike, the source gives them in different places.

Key:
[1] = system: H4 mCherry-GFP-LC3 cells; assay: Test 3: Autophagy assay (mCherry-GFP-LC3 reporter, high-content imaging); assay type: cell-based, human; conditions: 16-18 h treatment, mCherry-positive LC3 puncta/cell; for EC50: Homo sapiens
From the text: Autophagy is a catabolic pathway that degrades bulk cytosol in lysosomal compartments enabling amino acids and fatty acids to be recycled. One of the key regulators of autophagy is the mammalian target of rapamycin (mTOR), a conserved serine/threonine kinase which suppresses the initiation of the autophagic process when nutrients, growth factors and energy are available. To quantify autophagy induction by mTOR inhibitors, we use a mCherry-GFP-LC3 reporter which is amenable to retroviral delivery into mammalian cells, stable expression and analysis by fluorescence microscopy.
The amino acid sequence of the mCherry-GFP-LC3 construct is shown below (SEQ ID NO: 1). The mCherry sequence is underlined, GFP sequence is in bold and LC3A sequence is boxed.
Described hereinafter is an imaging protocol and image recognition algorithm to visualize and measure changes in the autophagic pathway.
Quantification of Autophagy Using High-Content Imaging and Analysis
• 1. Day 0: Cell plating. Subconfluent H4 mCherry-GFP-LC3 cells are harvested by trypsinization, resuspended in growth medium, and counted (H4 cells: Human neuroglioma cell line (ATCC)). A cell suspension of 66′000 cells/mL is prepared and 30 μL are added into the wells of a 384-well plate using an electronic multichannel pipette. […] The cell plates are briefly spun down and placed at 37° C. and 5% CO2. • 2. Day 1: Compound treatment. Compound dose responses are prepared in DMSO. The dose responses are then diluted 1:50 in medium. 10 ul of the diluted compound is added to 30 ul of cells, yielding a final 1:200 dilution of the original compound and final of 0.5% DMSO. Compound-treatments are performed in triplicates. The 384-well plates are placed at 37° C. and 5% CO2. Compound treatment is performed for 16-18 h (see Note 1). • 3. Day 2: Cell fixation. Cells are fixed by adding 10 μL/well 5× concentrated Mirsky's fixative supplemented with 25 μg/mL Hoechst33342. […] The 384-well plate is briefly spun down and incubated for 1 h at room temperature. Cells are then washed using a 384-well plate washer using a protocol which aspirates the volume down to 10 μL/well before dispensing 100 μL/well 1×TBS. Aspiration and dispensing steps are repeated 4 times and a final volume of 100 μL/well is left. The plate is sealed using an adhesive PCR foil. • 4. Imaging. The bottom of the plate is cleaned with 70% ethanol and then imaged using the InCell 1000 automated epifluorescence microscope. 20× magnification is used and 4 different areas (fields) are imaged per well, this typically captures a total of around 400 cells per well. Hoechst33342 images are acquired using an excitation of 360 nm (D360_40x filter), an emission of 460 nm (HQ460_40M filter) and an exposure time of 150 ms. GFP images are acquired using an excitation of 475 nm (S475_20x filter), an emission of 535 nm (HQ535_50M filter) and an exposure time of 1 s. mCherry images are acquired using an excitation of 535 nm (HQ535_50x filter), an emission of 620 nm (HQ620_60M filter) and an exposure time of 1 s. A quadruple band pass mirror is used for all images. • 5. Image analysis. The InCell Analysis software is used to analyze the images using the Multi Target Analysis algorithm. First, nuclei are detected in the Hoechst33342 image using top-hat segmentation and a minimal nuclear area of 50 μm^2. Cells are defined using a collar of 10 μm around the nuclei. Second, puncta (organelles) are identified in the mCherry image inside the cells using multi-top-hat segmentation. Third, the mask of the mCherry puncta is transferred onto the GFP image. Fourth, the GFP fluorescence intensity inside the mCherry puncta mask is measured (reference intensity). • 6. The ‘organelles’ parameter reflects mCherry-positive puncta of the mCherry-GFP-LC3 reporter and is used to calculate ‘LC3 puncta/cell’. […]

[2] = system: cellular mTOR kinase activity (phosphorylation of Thr 389 of S6K1) in TSC1-/- MEFs; assay: Test 2: Cellular mTOR assay (P-P70S6K T389 Surefire); assay type: cell-based; conditions: Mus musculus
Procedure: Test 2: Cellular mTOR Assay
30 μl are added per well to a 384 well-plate using a Multidrop instrument (Thermo scientific), resulting in 4000 cells/well. The plates are incubated at 37° C./5% CO2 for 20 hours (to allow for settling and adherance to the surface).
Eight 3-fold serial dilutions of test-compounds (beginning at 1.8 mM) are prepared in 90% DMSO and compiled on 384 well master plates (Greiner). A pan-pPI3K/mTOR inhibitor (0.8 mM of 8-(6-methoxy-pyridin-3-yl)-3-methyl-1-(4-piperazin-1-yl-3-trifluoromethyl-phenyl)-1,3-dihydro-imidazo[4,5-c]quinolin-2-one in 90% DMSO) is added to the wells for the low control. 90% DMSO is added to the wells for the high controls. Compounds are provided as 250 nl shots (Hummingbird) in 384 well-polypropylene microplates (compound plates). 50 μl of growth medium is added to the compound plates (dilution 1:200) with the Multidrop. After shaking (1 min at 2000 rpm), 10 μl of the first dilution is then transferred to the cell plate with a Matrix Plate Mate 2×3 pipettor (final dilution 1:4). After 1 hour of treatment, medium is removed from the plate and 20 μl of Surefire lysis buffer is added per well with the Multidrop.
Cell lysates are frozen for 15 minutes, thawed with shaking and transferred to the experimental 384 well-Proxiplate (5 μl/well) for the P-P70S6K (T389) Surefire assay (Perkin Elmer #TGR70S50). The first mix is composed of the reaction buffer (containing the specific antibody), the activation buffer and the acceptor beads (40 vol, 10 vol and 1 vol respectively). 5 μl per well is added to the lysates with a Zephyr® SPE Workstation (Caliper Life Sciences) and incubated for 2 hours with shaking at room temperature. After this incubation time, the second mix of dilution buffer and donor beads (20 vol and 1 vol respectively) is added to the plate with the same instrument (2 μl/well). After 2 hours, the plate can be read with an EnVision® Multilabel Reader (Perkin Elmer). Since the beads are light sensitive, their transfer and incubation is executed in a dark room (greenlight).
The raw data is used to generate dose response curves for test compounds and IC50 values calculated therefrom.

[3] = target: recombinant human mTOR (Homo sapiens (Human), UniProt P42345); assay: Test 1: mTOR ATP-binding assay based on TR-FRET; conditions: GST-tagged truncated human mTOR, tracer-314, TR-FRET
Procedure: Test 1: mTOR ATP-Binding Assay Based on TR-FRET for Recombinant Human mTOR
2. The final volume of the assay is 10 μL and the order of addition is as follows:
50 nL of compounds dilution;
Incubated for 60 minutes at room temperature.
TR-FRET measured in Biotek Synergy2 reader at: • Excitation 340 nm/emission 665 nm • Excitation 340 nm/emission 620 nm
The following final concentrations are used:
1 nM Europium anti-GST antibody;
The following controls are used:
3. IC50 determinations may be performed as follows:
The Emission ratio is converted to percentage of inhibition for each compound concentration. IC50 values are calculated by fitting a sigmoidal dose-response curve to a plot of assay readout over compound concentration. All fits and analysis are performed with the program XLfit4 (ID Business Solutions, Guildford, UK).

[4] = TSC1-/- MEFs, 1 hour treatment, P-P70S6K (T389), read-out: Test 2: T389 cellular assay IC50
[5] = 1 h, read-out: Test 2: T389 cellular assay IC50 (nM)

Sequence of recombinant human mTOR (P42345 1360-2549): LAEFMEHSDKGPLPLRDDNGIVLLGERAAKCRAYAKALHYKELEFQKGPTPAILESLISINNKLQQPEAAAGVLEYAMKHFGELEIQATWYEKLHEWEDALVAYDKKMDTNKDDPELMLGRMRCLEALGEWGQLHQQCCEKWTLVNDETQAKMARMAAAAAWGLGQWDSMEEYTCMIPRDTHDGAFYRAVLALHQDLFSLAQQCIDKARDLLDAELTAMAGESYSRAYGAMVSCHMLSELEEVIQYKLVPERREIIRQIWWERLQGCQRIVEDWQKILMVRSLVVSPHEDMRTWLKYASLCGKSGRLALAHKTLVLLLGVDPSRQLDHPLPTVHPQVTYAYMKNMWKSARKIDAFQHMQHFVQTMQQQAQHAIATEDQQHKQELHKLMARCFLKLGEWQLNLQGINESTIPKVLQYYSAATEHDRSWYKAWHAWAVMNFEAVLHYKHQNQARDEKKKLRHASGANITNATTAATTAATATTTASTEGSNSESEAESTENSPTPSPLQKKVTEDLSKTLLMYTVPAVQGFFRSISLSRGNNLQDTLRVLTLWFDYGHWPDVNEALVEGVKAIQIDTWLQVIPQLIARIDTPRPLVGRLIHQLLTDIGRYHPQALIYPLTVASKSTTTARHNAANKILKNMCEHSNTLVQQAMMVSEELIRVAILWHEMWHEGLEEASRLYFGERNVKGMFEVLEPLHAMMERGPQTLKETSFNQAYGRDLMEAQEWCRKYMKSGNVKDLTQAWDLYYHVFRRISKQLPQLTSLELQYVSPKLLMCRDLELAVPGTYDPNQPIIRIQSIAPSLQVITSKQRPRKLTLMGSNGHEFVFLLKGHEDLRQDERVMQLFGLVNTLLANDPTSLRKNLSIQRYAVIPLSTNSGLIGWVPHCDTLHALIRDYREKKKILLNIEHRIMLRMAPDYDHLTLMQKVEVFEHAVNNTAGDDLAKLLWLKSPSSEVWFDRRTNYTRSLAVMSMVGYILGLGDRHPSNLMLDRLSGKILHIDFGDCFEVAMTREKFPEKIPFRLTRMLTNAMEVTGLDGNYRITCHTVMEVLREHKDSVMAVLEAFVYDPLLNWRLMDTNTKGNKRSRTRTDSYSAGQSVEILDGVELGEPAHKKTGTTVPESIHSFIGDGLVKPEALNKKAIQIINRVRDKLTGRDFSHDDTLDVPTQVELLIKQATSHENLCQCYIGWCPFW

C[C@@H]1COCCN1c1nc(N2CCOC[C@H]2C)c2nc(-c3ccccn3)[nH]c2n1 [Example 1, 2,6-Bis-((R)-3-methyl-morpholin-4-yl)-8-pyridin-2-yl-9H-purine]
EC50 [1]: 351 nM
IC50 [2, 4]: 1010 nM
IC50 [3]: 139 nM

C[C@@H]1COCCN1c1nc(N2CCN(C)CC2)nc2[nH]c(-c3cccc4[nH]ccc34)nc12 [Example 16, 8-(1H-Indol-4-yl)-6-((R)-3-methyl-morpholin-4-yl)-2-(4-methyl-piperazin-1-yl)-9H-purine]
Test 3: Autophagy EC50 (nM) [1]: n.m.
IC50 [2, 5]: 259 nM
IC50 [3]: 308 nM

C[C@@H]1COCCN1c1nc(N2CCN(C3COC3)CC2)nc2[nH]c(-c3cccc4[nH]ccc34)nc12 [Example 18, 8-(1H-Indol-4-yl)-6-((R)-3-methyl-morpholin-4-yl)-2-(4-oxetan-3-yl-piperazin-1-yl)-9H-purine]
Test 3: Autophagy EC50 (nM) [1]: n.m.
IC50 [2, 4]: 249 nM
IC50 [3]: 91 nM

C[C@H]1COCCN1c1nc(N2CCOC[C@@H]2C)c2nc(-c3ccc(N)nc3)[nH]c2n1 [Example 27, 5-[2,6-Bis-((S)-3-methyl-morpholin-4-yl)-9H-purin-8-yl]-pyridin-2-ylamine]
EC50 [1]: 4740 nM
IC50 [2, 5]: 1190 nM
IC50 [3]: 2410 nM

C[C@@H]1COCCN1c1nc(N2CCOC[C@H]2C)c2nc(-c3ccc(N)nc3)[nH]c2n1 [Example 28, 5-[2,6-Bis-((R)-3-methyl-morpholin-4-yl)-9H-purin-8-yl]-pyridin-2-ylamine]
EC50 [1]: 2370 nM
IC50 [2, 5]: 272 nM
IC50 [3]: 754 nM

C[C@@H]1CN(c2nc(N3CCOC[C@H]3C)c3nc(-c4cccc5[nH]ccc45)[nH]c3n2)C[C@H](C)O1 [Example 23, 2-((2S,6R)-2,6-Dimethyl-morpholin-4-yl)-8-(1H-indol-4-yl)-6-((R)-3-methyl-morpholin-4-yl)-9H-purine]
Test 3: Autophagy EC50 (nM) [1]: n.m.
IC50 [2, 5]: 104 nM
IC50 [3]: 78 nM

C[C@@H]1COCCN1c1nc(N2CCOC[C@H]2C)c2nc(-c3ccc(-c4ncc[nH]4)cc3)[nH]c2n1 [Example 4, 8-[4-(1H-Imidazol-2-yl)-phenyl]-2,6-bis-((R)-3-methyl-morpholin-4-yl)-9H-purine]
EC50 [1]: 2160 nM
IC50 [2, 4]: 1550 nM
IC50 [3]: 2120 nM

C[C@@H]1COCCN1c1nc(N2CCOC[C@H]2C)c2nc(-c3cc(CO)cc4[nH]ccc34)[nH]c2n1 [Example 6, {4-[2,6-Bis-((R)-3-methyl-morpholin-4-yl)-9H-purin-8-yl]-1H-indol-6-yl}-methanol]
EC50 [1]: 423 nM
IC50 [2, 5]: 1180 nM
IC50 [3]: 66 nM

C[C@@H]1COCCN1c1nc(N2CCOC[C@@H]2C)nc2[nH]c(-c3cc[nH]n3)nc12 [Example 2, 2-((S)-3-Methyl-morpholin-4-yl)-6-((R)-3-methyl-morpholin-4-yl)-8-(1H-pyrazol-3-yl)-9H-purine]
EC50 [1]: 1050 nM
IC50 [2, 4]: 131 nM
IC50 [3]: 104 nM

C[C@H]1COCCN1c1nc(N2CCOC[C@@H]2C)c2nc(-c3ccccn3)[nH]c2n1 [Example 8, 2,6-Bis-((S)-3-methyl-morpholin-4-yl)-8-pyridin-2-yl-9H-purine]
Test 3: Autophagy EC50 (nM) [1]: n.m.
IC50 [2, 4]: 806 nM
IC50 [3]: 1030 nM

C[C@@H]1COCCN1c1nc(N2CCOC[C@H]2C)c2nc(-c3cnc(N)nc3)[nH]c2n1 [Example 29, 5-[2,6-Bis-((R)-3-methyl-morpholin-4-yl) 9H-purin-8-yl]-pyrimidin-2-yl-amine]
EC50 [1]: 3610 nM
IC50 [2, 5]: 498 nM
IC50 [3]: 1310 nM

C[C@H]1COCCN1c1nc(N2CCOC[C@@H]2C)c2nc(-c3ccc(-c4ncc[nH]4)cc3)[nH]c2n1 [Example 30, 8-[4-(1H-Imidazol-2-yl)-phenyl]-2,6-bis-((S)-3-methyl-morpholin-4-yl)-9H-purine]
EC50 [1]: 1460 nM
IC50 [2, 4]: 1140 nM
IC50 [3]: 364 nM

COC(=O)c1cc(-c2nc3c(N4CCOC[C@H]4C)nc(N4CCOC[C@H]4C)nc3[nH]2)c2cc[nH]c2c1 [Example 32, 4-[2,6-Bis-((R)-3-methyl-morpholin-4-yl)-9H-purin-8-yl]-1H-indole-6-carboxylic acid methyl ester]
EC50 [1]: > 6000 nM
IC50 [2, 5]: 1120 nM
IC50 [3]: 533 nM

C[C@@H]1COCCN1c1nc(N2CCCOCC2)nc2[nH]c(-c3cccc4[nH]ccc34)nc12 [Example 3, 8-(1H-Indol-4-yl)-6-((R)-3-methyl-morpholin-4-yl)-2-[1,4]oxazepan-4-yl-9H-purine]
EC50 [1]: 422 nM
IC50 [2, 5]: 76 nM
IC50 [3]: 164 nM

C[C@H]1COCCN1c1nc(N2CCOC[C@@H]2C)c2nc(-c3cc[nH]n3)[nH]c2n1 [Example 10, 2,6-Bis-((S)-3-methyl-morpholin-4-yl)-8-(1H-pyrazol-3-yl)-9H-purine]
EC50 [1]: 1440 nM
IC50 [2, 4]: 135 nM
IC50 [3]: 343 nM
